These results are taken from patent publication US20190284635A1, “METHOD FOR THE PROGNOSIS AND/OR TREATMENT OF ACUTE PROMYELOCYTIC LEUKEMIA” (EPI-C S.R.L., priority 2016, published 2019).

The test system of series [1] is NB4 cells. Nature of the series: Combination of ABT-737 with MC2884, pre-G1 cells. Type of series: cell-based, human. Particulars: ABT-737 with addition of MC2884 at concentrations that alone induced little apoptosis.
Experimental: For cell cycle analyses, the cells were plated (2×10^5 cells/mL) and after stimulation (performed as indicated in the text) were harvested, centrifuged at 1200 rpm for 5 minutes and resuspended in 500 μL of a hypotonic solution containing 1×PBS, Sodium Citrate 0.1%, 0.1% NP-40, RNAase A and 50 mg/mL Propidium Iodide (PI) (a dye that intercalates between the DNA bases, marking the DNA content in the cells and emitting a fluorescent signal that enables the analysis). After 30' at room temperature (RT) in the dark, samples were acquired by FACS-Calibur (BD Bioscences, San Jose, Calif., USA) using CellQuest software (BD Biosciences). The percentage in different phases of the cell cycle was determined by ModFit LT V3 software (Verity). All experiments were performed in triplicate.
Series [2] deals with APL-Rs (pt#7 and 8) blasts. Nature of the series: Cell death in ex vivo APL-R blasts. Type of series: cell-based, human. As to conditions: pt#7 and 8, 24 h. Here is the method: Blasts cells were purified by the Ficoll-Hypaque gradient separation method (GE Healthcare). RNA was obtained by using TRIzol (Life Technologies) according to the manufacturer's recommendations. Isolation of genomic DNA has complied the FlexiGene DNA protocol (Qiagen).
To further strengthen our findings in primary human cells, apoptosis was evaluated in 6 AML patient blasts (FIG. 10C).

Series [3] concerns NB4 cells. Nature of the series: Cell death induction in NB4 cells. Type of series: cell-based, human. As to conditions: for cytotoxicity at 3 µM: Homo sapiens, NB-4, 30 h; for % Cell death NB4 cells: 3 μM, 30 h. Here is the method: (§1) For cell cycle analyses, the cells were plated (2×10^5 cells/mL) and after stimulation (performed as indicated in the text) were harvested, centrifuged at 1200 rpm for 5 minutes and resuspended in 500 μL of a hypotonic solution containing 1×PBS, Sodium Citrate 0.1%, 0.1% NP-40, RNAase A and […] Propidium Iodide (PI) (a dye that intercalates between the DNA bases, marking the DNA content in the cells and emitting a fluorescent signal that enables the analysis). After 30′ at room temperature (RT) in the dark, samples were acquired by FACS-Calibur (BD Bioscences, San Jose, Calif., USA) using CellQuest software (BD Biosciences). The percentage in different phases of the cell cycle was determined by ModFit LT V3 software (Verity). All experiments were performed in triplicate.
When tested in leukemia NB4 cells at 3 μM for 30 h, MC2884 induced 52.1% cell death. Some MC2884 analogues have been tested to obtain SAR data (Table 8).

Series [4] is described as follows: Stability of MC2884 in cell culture medium (DMEM, RP-HPLC). Type of series: physicochemical. As to conditions: 50 μM in DMEM. Here is the method: The compound was dissolved in DMEM at 50 μM and its concentration was measured by RP-HPLC using a ONYX 50×2 mm ID C18 column operating at 600 μL/min. The gradient applied was from 1% solvent B to 70% solvent B in 10 minutes. Solvent A was water with added 0.1% trifluoroacetic acid (TFA) and solvent B was acetonitrile with added 0.1% TFA. The eluate was monitored using a diode array detector with wavelengths set between 200-320 nm. The compound was eluted at 11.1 min. Peak integration was carried out on the chromatogram extracted at […], which is one of the compound absorbance maxima. A calibration curve was built by injecting solutions of the compound in DMSO at concentrations ranging between 1.5 μM and 200 μM. After incubation in DMEM compound concentration was determined at time points ranging between 0 and 72 hrs. As shown, half of compound was degraded after 10h. At 72 hrs it was fully degraded under these conditions.

A short description of series [5]: Mouse terminal IV PK study. Type of series: in vivo. As to conditions: 2 mg/kg, male CD1 mice, plasma. Here is the method:
(§2) Compound was administered both intravenously and intraperitoneally to mice. Blood samples were collected at 8 time points over 24 hr and plasma analysed by LC-MS/MS to determine the concentration of compound.
(§3) The plasma time concentration profile was calculated with the main PK parameters (Co, AUClast, t, VD, and CL).
For iv dosing. Compound was dissolved at 0.4 mg/mL. This provided a dose of 2 mg free base material/kg when administered iv in a 5 mL/kg dosing volume.
Compound MC2884 was given iv via the lateral tail vein at a dose of 2 mg/kg to a group of 24 normally fed male CD1 mice in a 5 mL/kg injection volume. Terminal blood samples (>230 μL) were taken under CO2 from groups of 3 mice at each of 8 time-points post dose (0.083, 0.25, 0.5, 1, 2, 4, 8 and 24 h) and placed into heparinized tubes. Samples were placed on ice for no longer than 30 min before centrifugation (10,000 rpm×3 min). Plasma samples (>100 μL) were collected into fresh tubes and frozen on dry ice. Number of plasma samples=24. Consistent IV profiles were obtained, with little variability across the time-points (the average profile is shown in the second spreadsheet). […] FIG. 17-18 display results for IV-IP administration of MC2884 in normal mice.

Series [6] can be described thus: Mouse terminal IP PK study. Particulars: plasma, 2 mg/kg. Type of series: in vivo, male CD1 mice. Here is the method:
as §2, §3
For ip dosing. After formulation assessment, MC2884 was dissolved at 0.2 mg/mL. This provided a dose of 2 mg free base material/kg when administered ip in a 10 mL/kg dosing volume.
Compound MC2884 was given ip at a dose of 2 mg/kg to a group of 24 normally fed male CD1 mice in a 10 mL/kg injection volume. Terminal blood samples (>230 μL) were taken under CO2 from groups of 3 mice at each of 8 time-points post dose (0.083, 0.25, 0.5, 1, 2, 4, 8 and 24 h) and placed into heparinized tubes. Samples were placed on ice for no longer than 30 min before centrifugation (10,000 rpm×3 min). Plasma samples (>100 μL) were collected into fresh tubes and frozen on dry ice. All samples were stored at −20° C. Number of plasma samples=24. FIG. 17-18 display results for IV-IP administration of MC2884 in normal mice

For the next series, the target named is T1, CYP3A4 (Homo sapiens, UniProt P08684).
T1 construct: from tissue; host or cells: human liver microsomes
Nature of the series: Cytochrome P450 inhibition, CYP3A4, human liver microsomes. Type of series: in vitro ADME. As to conditions: at 25 μM, probe midazolam. (Liver microsomes are vesicles of endoplasmic reticulum, rich in cytochrome P450 enzymes.)

In series [7] the test system is immortalized non-cancer cell systems. Nature of the series: Cytotoxicity on immortalized non-cancer cells. As to conditions: at the dose effective on cancer cells.
Experimental: Colorimetric exclusion: cells (2×10^5 cells/mL) were plated in multiwells and in triplicate.
In a further series the test system is SHSY5Y cells. Nature of the series: Cell death induction in SHSY5Y cells. Type of series: cell-based. Particulars: 48 h; for cytotoxicity at 3 µM: Homo sapiens, SH-SY5Y; for cell death induction in SHSY5Y cells, in words, relative to MC2884: 3 μM. Here is the method:
as §1
When tested in neuroblastoma SHSY5Y cells at 3 μM for 48 h, MC2884 and its analogues furnished similar trend of death induction as in NB4 cells (Table 7). In general, the SHSY5Y cell line is less sensitive to the tested molecules than NB4 cells.

Series [8] has as its system acetyl-H3K9-14, H3K27me3/2, EZH2 in NB4 cells. Nature of the series: Western blot of histone marks and EZH2 in NB4 cells. Type of series: cell-based, human. Here is the method:
The procedures were performed as described in (31,34). Primary antibodies used were: H3K27me3 (Abcam); H3K9-14ac (Millipore); H3K27ac, EZH2, PARP, TRAIL, RIP (Abcam); BID, BAX, BCL2 (Cell Signaling); BCL-XL (BD Biosciences); ERKs (Santa Cruz) and α-tubulin (Sigma) were used to normalize the total protein extracts, while H1 (Abcam) to normalize histone extracts.
For orientation: Immunoblotting shows a protein as a band on a membrane.

T1 sequence (P08684 whole entry): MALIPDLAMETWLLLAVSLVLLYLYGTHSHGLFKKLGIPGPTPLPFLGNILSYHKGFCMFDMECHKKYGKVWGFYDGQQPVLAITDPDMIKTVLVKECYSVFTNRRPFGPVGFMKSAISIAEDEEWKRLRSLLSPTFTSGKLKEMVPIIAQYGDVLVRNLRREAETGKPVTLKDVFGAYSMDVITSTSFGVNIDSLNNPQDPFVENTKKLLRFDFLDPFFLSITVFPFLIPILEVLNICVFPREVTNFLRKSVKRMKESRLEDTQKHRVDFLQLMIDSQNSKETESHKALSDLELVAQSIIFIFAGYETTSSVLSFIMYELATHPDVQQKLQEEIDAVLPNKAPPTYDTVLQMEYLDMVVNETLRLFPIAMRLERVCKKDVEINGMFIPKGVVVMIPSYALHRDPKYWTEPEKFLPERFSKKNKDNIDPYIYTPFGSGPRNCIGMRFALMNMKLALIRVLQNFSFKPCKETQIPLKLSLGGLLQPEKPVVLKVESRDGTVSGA

With `CN(C)CC[C@H](CSc1ccccc1)Nc1ccc(S(=O)(=O)NC(=O)c2ccc(N3CCN(Cc4ccccc4-c4ccc(Cl)cc4)CC3)cc2)cc1[N+](=O)[O-]` [ABT-737], the “cell death with ABT-737 plus MC2884” value with NB4 cells [1] is “up to 60%”.
Turning to `CC1=C(/C=C/C(C)=C/C=C/C(C)=C/C(=O)O)C(C)(C)CCC1` [ATRA, All Trans Retinoic Acid], in series [2], the “apoptosis in ex vivo APL-R blasts” value is “did not undergo efficient apoptosis”.
`O=C1/C(=C/c2cccc(Br)c2)CN(Cc2ccccc2)C/C1=C\c1cccc(Br)c1` [MC2884, 1-benzyl-3,5-bis(3-bromobenzylidene)piperidin-4-one]: in the series on NB4 cells [3], the cytotoxicity at 3 µM turned out to be 52.1%. The “time for total degradation in culture medium” value in [4] was found to be 72 h. In [5], this compound had an average half-life of 4.58 h. Moreover, the area under the curve (AUC) – broadly, concentration integrated over time – in series [5] (mouse) turned out to be 13300 ng·h/mL; in series [6] (mouse, ip, male CD1 mice), 18400 ng·h/mL. Also, the bioavailability in series [6] (male, CD1, mouse, dose route IP, time frame 0-inf) is 140%. The compound also showed a CYP3A4 % inhibition on CYP3A4 of 45%. Besides, the “cytotoxicity on non-cancer cells” value in series [7] is “low cytotoxicity”.
Turning to `O=C(/C=C/c1ccc(Br)cc1)/C=C/c1ccc(Br)cc1` [MC2886, (1E,4E)-1,5-bis(4-bromophenyl)penta-1,4-dien-3-one], the results for the cytotoxicity at 3 µM in the series with NB4 cells [3] and in the series on SHSY5Y cells were 0.56% and 1.2%, respectively.
As to `O=C1/C(=C/c2ccccc2Br)CN(Cc2ccccc2)C/C1=C\c1ccccc1Br` [MC2908, 1-benzyl-3,5-bis(2-bromobenzylidene)piperidin-4-one], the cytotoxicity at 3 µM was 30.3% in the series with NB4 cells [3] and 9.2% in the series with SHSY5Y cells.
`O=C1/C(=C/c2ccc(Br)cc2)CN(Cc2ccccc2)C/C1=C\c1ccc(Br)cc1` [MC2909, 1-benzyl-3,5-bis(4-bromobenzylidene)piperidin-4-one] gave a cytotoxicity at 3 µM in the series on NB4 cells [3] of 8.8%. Besides, in the series on SHSY5Y cells, the “cell death induction in SHSY5Y cells, in words, relative to MC2884” value (“cell death induction … relative to MC2884” for short) is given as “less potent or not active” and the cytotoxicity at 3 µM was 4.7%. Further, in series [8], the “modulation of histone acetylation and EZH2 deregulation” value is “unable to modulate”.
With `O=C1/C(=C/c2cc(Br)cc(Br)c2)CN(Cc2ccccc2)C/C1=C\c1cc(Br)cc(Br)c1` [MC2910, 1-benzyl-3,5-bis(3,5-dibromobenzylidene)piperidin-4-one], the cytotoxicity at 3 µM in the series with NB4 cells [3] is 4.2%; in the series on SHSY5Y cells it was 2.4%.
For the compound `O=C1/C(=C/c2cccc(Br)c2)CCC/C1=C\c1cccc(Br)c1` [MC2911, 2,6-bis((E)-3-bromobenzylidene)cyclohexan-1-one], the figures for the cytotoxicity at 3 µM in the series on NB4 cells [3] and with SHSY5Y cells were 0.76% and 0.8%, respectively.
For `O=C1/C(=C/c2cccc(Br)c2)COC/C1=C\c1cccc(Br)c1` [MC2912, 3,5-bis(3-bromobenzylidene)dihydro-2H-pyran-4(3H)-one], in that order: 4.1% and 1%.
For the compound `O=C1/C(=C/c2cccc(Br)c2)CSC/C1=C\c1cccc(Br)c1` [MC2913, 3,5-bis(3-bromobenzylidene)dihydro-2H-thiopyran-4(3H)-one], the cytotoxicity at 3 µM came out at 52.7% in the series on NB4 cells [3] and 23.9% with SHSY5Y cells.
As to `CN1C/C(=C\c2cccc(Br)c2)C(=O)/C(=C/c2cccc(Br)c2)C1` [MC2914, 3,5-bis(3-bromobenzylidene)-1-methylpiperidin-4-one], in the series with NB4 cells [3], the “% Cell death NB4 cells” value turned out to be 36.0% and the cytotoxicity at 3 µM was determined as 36%. Also, in the series on SHSY5Y cells, the “cell death induction … relative to MC2884” value is on record as “reduced the potency” and the cytotoxicity at 3 µM came out at 9%.
`O=C1/C(=C/c2cccc(Br)c2)CN(C(=O)c2ccccc2)C/C1=C\c1cccc(Br)c1` [MC3146, 1-benzoyl-3,5-bis(3-bromobenzylidene)piperidin-4-one]: the cytotoxicity at 3 µM turned out to be 13.2% in the series on NB4 cells [3] and 5.6% in the series on SHSY5Y cells.
As to `O=C1/C(=C/c2cccc(Br)c2)CN(C(=O)CCc2ccccc2)C/C1=C\c1cccc(Br)c1` [MC3187, 3,5-bis(3-bromobenzylidene)-1-(3-phenylpropanoyl) piperidin-4-one], the cytotoxicity at 3 µM in the series on NB4 cells [3] came out at 28.9%. Further, in the series on SHSY5Y cells, the “cell death induction … relative to MC2884” value is given as “slightly more potent than MC2884” and the cytotoxicity at 3 µM was 19.9%.
Take `O=C1/C(=C/c2cccc(Br)c2)CN(CC(=O)c2ccccc2)C/C1=C\c1cccc(Br)c1` [MC3207, 3,5-bis(3-bromobenzylidene)-1-(2-oxo-2-phenylethyl)piperidin-4-one]: the “% Cell death NB4 cells” value in the series on NB4 cells [3] amounted to 38.0%. For the same compound, the results for the cytotoxicity at 3 µM with NB4 cells [3] and with SHSY5Y cells were 38% and 7%, respectively.
In the case of `O=C1/C(=C/c2cccc(Br)c2)CN(CCc2ccccc2)C/C1=C\c1cccc(Br)c1` [MC3269, 3,5-bis(3-bromobenzylidene)-1-phenethylpiperidin-4-one], the cytotoxicity at 3 µM is 62.5% with NB4 cells [3] and 19.2% in the series with SHSY5Y cells. Moreover, in the series with SHSY5Y cells, the “cell death induction … relative to MC2884” value is reported as “same potency as MC2884”.
Turning to `O=C1/C(=C/c2cccc(Br)c2)CN(CCCc2ccccc2)C/C1=C\c1cccc(Br)c1` [MC3272, 3,5-bis(3-bromobenzyliden)-1-(3-phenylpropyl) piperidin-4-one], the cytotoxicity at 3 µM in the series with NB4 cells [3] worked out at 29.2%; in the series on SHSY5Y cells, 7%.
For `O=C1/C(=C/c2ccc(O)cc2Br)CN(Cc2ccccc2)C/C1=C\c1ccc(O)cc1Br` [MC3395, 1-benzyl-3,5-bis((E)-2-bromo-4-hydroxybenzylidene)piperidin-4-one], in that order: 0.53% and 1%.
